{"source": "paper PMC5690597", "about": "“Suppression and resolution of autoimmune arthritis by rhesus θ-defensin-1, an immunomodulatory macrocyclic peptide” (PLoS ONE, 2017)", "key": {"in vivo": {"assay": "in vivo", "conditions": "plasma", "procedure": "Eight to 12-week old male Sprague Dawley rats (Harlan) were fitted with a surgically implanted jugular vein catheter for sequential blood collection (Culex NxT Automated In Vivo Sampling System; BASi, West Lafayette, IN), and monitored daily. RTD-1 dissolved in saline was injected subcutaneously at 5 mg/kg to 4 animals. Approximately 200 μl of blood was collected before peptide administration and at 0.25, 0.5, 1, 2, 4, 6, 8, 12, 18, 24, 30, 36, 48, 60, and 72 h after RTD-1 injection. Blood was collected into vials containing K3EDTA and plasma was collected after centrifugation. Plasma concentrations of RTD-1 were determined after solid phase extraction (SPE) by weak cation exchange (Oasis WCX, Waters, Milford, MA) and quantitation by C18 RP-UPLC, photodiode array (PDA) detection, and electrospray-ionization mass spectrometry (ESI-MS). Chromatography was performed on an Acquity H-class UPLC with an analytical PDA detector using Empower 3 software (Waters). Quantitative mass spectrometry was performed on post PDA eluent using a Micromass Quattro Ultima mass spectrometer with MassLynx 4.1 (Waters). Pharmacokinetic analysis was performed using parametric population modeling with maximum likelihood estimation via the EM algorithm with sampling (MLEM) as implemented in the ADAPT 5 (Version 5.0.49) PK/PD Systems Analysis Software (Biomedical Simulations Resource, University of Southern California)."}, "[1]": {"conditions": "no method or data given"}, "FLS": {"system": "FLS", "conditions": "RTD-1 0–30 μg/ml; all samples; LDH release", "method": "FLS were seeded at 3 × 10^3 cells/well in a 96-well TC treated plate (Greiner). Cells were allowed to adhere for 18 h and medium was replaced prior to addition of peptide or vehicle. RTD-1 was added to wells at final concentrations of 0–30 μg/ml in culture medium and incubated for 0, 24, or 48 h at 37°C in 5% CO2. FLS cell number was determined by DNA staining using CyQuant Cell Proliferation Assay Kit (Invitrogen) per manufacturer’s instructions. Cellular toxicity was determined by measuring the release of lactate dehydrogenase (LDH) using a CytoTox 96 Cytotoxicity Assay (Promega Bio Sciences, San Luis Obispo, CA) in FLS supernatants. All assays were performed with ≥ 7 replicates."}, "FLS from PIA rats": {"system": "FLS from PIA rats", "assay": "FLS invasion assay (Matrigel-coated transwell)", "type": "cell-based", "conditions": "RTD-1 0.1 μg/ml; 24 h; 7 different rat DA FLS cell lines, mean", "procedure": "Fibroblast-like synoviocytes (FLS) were isolated by enzymatic digestion of the synovial tissue from DA rats with PIA as previously described. Cells were washed and suspended in DMEM supplemented with 10% fetal bovine serum (Gibco, Grand Island, NY), 30 mg/ml L-glutamine (Sigma), 250 μg/ml amphotericin B (Sigma), and […] gentamicin (Gibco). After overnight culture, non-adherent cells were removed and adherent cells were cultured to approximately 70–90% confluence and passaged following detachment with 0.25% trypsin-EDTA for 3 min at 37°C. All experiments were performed with FLS after at least four passages.\nFLS invasiveness was assayed in vitro using Matrigel-coated inserts in a transwell system (Becton, Dickinson and Company, Franklin Lakes, NJ) as previously described. Briefly, DA rat FLS (70–80% confluent) isolated as described above were suspended at 2.0 × 10^4 cells/well in serum-free DMEM. Cells were placed in the upper compartment of the Matrigel-coated inserts to which RTD-1 was added to final concentrations of 0.1, 1, or 10 μg/ml. The lower compartment contained complete medium with 10% FBS and plates were incubated at 37°C. […] The opposite side of the insert was stained with Crystal Violet (Sigma) and the total number of invading cells was counted at 100X magnification. […]"}, "anti-RTD-1 Ig": {"system": "anti-RTD-1 Ig", "assay": "RTD-1 immunogenicity analysis (dot immunoblot)", "type": "in vivo, DA and Sprague Dawley rats", "conditions": "8–42 s.c. injections of 5 mg/kg; serum or plasma", "procedure": "Adult DA or Sprague-Dawley rats were challenged s.c. with 5 mg/kg RTD-1 every day (15–42 injections), or every other day (8 injections). Several animals were boosted 2 months later, prior to serum or plasma collection. Immune responses were analyzed by dot blot on nitrocellulose membranes as described in legend to the figure."}, "[2]": {"system": "DA rats with advanced PIA", "assay": "Severe (advanced) pristane-induced arthritis (AS ≥ 12)", "type": "in vivo, rat", "procedure": "Female DA/OlaHsd (D blood group allele and Agouti, also known as Dark Agouti), rats were obtained from Harlan Laboratories (Indianapolis, IN). Animals were allowed to acclimate for 48–72 hours prior to experimental use. Animals were fed standard chow ad lib during a 12-hour day/night cycle. PIA was induced in 5–7 week old animals (90–100 gm) by intradermal injection of 250 μl pristane (Sigma) divided into 3–5 sites at the base of the tail. Animals were monitored daily and disease severity of each limb was scored 0–4 using the method of Brand et al.. The severity scores for all limbs of individual animals were totaled to give an individual’s arthritis severity score (AS) ranging from zero for normal animals to maximum disease score of sixteen. Disease severity was assessed by at least two scorers and the inter-rater agreement (kappa) value was 0.806 as determined using MedCalc Statistical Software version 14.8.1 (MedCalc Software, Ostend, Belgium). In three separate trials, treatment was also blinded to scorers. There was no statistical difference between blinded and unblinded scoring of any treatment cohort. Treatment with saline (vehicle), RTD-1, or anti-arthritic agents was randomized and initiated when an animal first presented with an AS of 3 or more. […]"}, "[3]": {"conditions": "administered subcutaneously; this study and ref 9"}, "MMP-9": {"biological_target": "MMP-9 (Homo sapiens, UniProt P14780)", "sequence (P14780 94-707, species assumed)": "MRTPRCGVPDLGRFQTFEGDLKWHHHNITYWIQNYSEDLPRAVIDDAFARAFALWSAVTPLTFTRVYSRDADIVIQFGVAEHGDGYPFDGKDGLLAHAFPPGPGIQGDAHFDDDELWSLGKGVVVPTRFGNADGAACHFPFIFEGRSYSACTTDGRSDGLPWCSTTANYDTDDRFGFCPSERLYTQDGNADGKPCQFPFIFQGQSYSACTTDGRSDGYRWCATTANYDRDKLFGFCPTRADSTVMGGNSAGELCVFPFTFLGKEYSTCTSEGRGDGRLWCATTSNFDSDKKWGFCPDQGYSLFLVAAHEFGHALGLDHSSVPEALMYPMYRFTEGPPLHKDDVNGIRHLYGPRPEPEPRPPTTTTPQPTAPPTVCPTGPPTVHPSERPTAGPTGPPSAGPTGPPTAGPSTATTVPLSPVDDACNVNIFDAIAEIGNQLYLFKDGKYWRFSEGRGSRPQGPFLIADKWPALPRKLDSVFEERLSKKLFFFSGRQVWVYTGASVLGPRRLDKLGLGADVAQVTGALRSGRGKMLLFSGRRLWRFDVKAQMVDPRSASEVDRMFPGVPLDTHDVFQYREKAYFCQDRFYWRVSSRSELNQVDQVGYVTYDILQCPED", "assay": "biochemical", "procedure": "(§1) Inhibition of MMPs by RTD-1 was performed as described, incubating each enzyme with 0–100 μg/ml of RTD-1. IC50 values were calculated by GraphPad Prism 5.01 (GraphPad Software, San Diego, CA) utilizing a non-linear curve fit of log [inhibitor] versus response with variable slope."}, "MMP-8": {"biological_target": "MMP-8 (Homo sapiens, UniProt P22894)", "sequence (P22894 101-467, species assumed)": "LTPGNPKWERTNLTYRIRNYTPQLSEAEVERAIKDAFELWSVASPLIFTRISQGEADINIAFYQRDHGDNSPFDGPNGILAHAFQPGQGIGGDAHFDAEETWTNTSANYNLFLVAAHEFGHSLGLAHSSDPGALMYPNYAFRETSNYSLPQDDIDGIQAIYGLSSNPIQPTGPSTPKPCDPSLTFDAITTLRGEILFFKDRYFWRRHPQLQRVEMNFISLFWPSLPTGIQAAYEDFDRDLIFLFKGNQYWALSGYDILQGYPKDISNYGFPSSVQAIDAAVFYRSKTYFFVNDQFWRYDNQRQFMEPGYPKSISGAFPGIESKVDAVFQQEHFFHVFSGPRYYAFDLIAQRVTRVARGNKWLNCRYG", "assay": "biochemical", "procedure": "as §1"}, "MMP-1": {"biological_target": "MMP-1 (Homo sapiens, UniProt P03956)", "sequence (P03956 100-469, species assumed)": "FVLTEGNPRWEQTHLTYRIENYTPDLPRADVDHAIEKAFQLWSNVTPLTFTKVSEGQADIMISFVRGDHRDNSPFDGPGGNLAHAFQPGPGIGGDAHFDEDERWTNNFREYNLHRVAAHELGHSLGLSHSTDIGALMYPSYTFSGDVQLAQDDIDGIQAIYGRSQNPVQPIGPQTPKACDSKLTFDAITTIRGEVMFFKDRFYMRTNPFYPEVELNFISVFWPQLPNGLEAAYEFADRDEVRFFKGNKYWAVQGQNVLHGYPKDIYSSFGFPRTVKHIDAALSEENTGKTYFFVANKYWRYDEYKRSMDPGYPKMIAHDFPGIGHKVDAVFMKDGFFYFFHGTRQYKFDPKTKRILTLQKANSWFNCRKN", "assay": "biochemical", "procedure": "as §1"}, "MMP-14": {"biological_target": "MMP-14 (Homo sapiens, UniProt P50281)", "assay": "biochemical", "procedure": "as §1"}, "MMP-13": {"biological_target": "MMP-13 (Homo sapiens, UniProt P45452)", "assay": "biochemical", "procedure": "as §1"}, "MMP-2": {"biological_target": "MMP-2 (Homo sapiens, UniProt P08253)", "sequence (P08253 110-660, species assumed)": "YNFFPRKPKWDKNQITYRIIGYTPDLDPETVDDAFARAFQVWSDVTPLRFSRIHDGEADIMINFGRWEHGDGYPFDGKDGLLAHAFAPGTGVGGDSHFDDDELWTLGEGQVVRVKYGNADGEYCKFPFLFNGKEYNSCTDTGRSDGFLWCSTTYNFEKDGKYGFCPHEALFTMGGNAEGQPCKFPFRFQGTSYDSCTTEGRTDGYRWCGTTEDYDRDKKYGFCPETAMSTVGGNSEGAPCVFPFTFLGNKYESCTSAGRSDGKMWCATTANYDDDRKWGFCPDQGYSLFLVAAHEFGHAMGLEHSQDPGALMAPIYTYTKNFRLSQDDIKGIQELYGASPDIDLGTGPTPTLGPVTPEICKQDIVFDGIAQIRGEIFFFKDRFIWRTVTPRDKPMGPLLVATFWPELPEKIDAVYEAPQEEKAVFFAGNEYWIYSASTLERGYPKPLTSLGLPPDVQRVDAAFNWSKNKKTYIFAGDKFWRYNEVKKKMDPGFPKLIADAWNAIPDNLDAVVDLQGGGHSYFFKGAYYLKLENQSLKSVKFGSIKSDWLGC", "assay": "biochemical", "procedure": "as §1"}, "MMP-3": {"biological_target": "MMP-3 (Homo sapiens, UniProt P08254)", "sequence (P08254 100-477, species assumed)": "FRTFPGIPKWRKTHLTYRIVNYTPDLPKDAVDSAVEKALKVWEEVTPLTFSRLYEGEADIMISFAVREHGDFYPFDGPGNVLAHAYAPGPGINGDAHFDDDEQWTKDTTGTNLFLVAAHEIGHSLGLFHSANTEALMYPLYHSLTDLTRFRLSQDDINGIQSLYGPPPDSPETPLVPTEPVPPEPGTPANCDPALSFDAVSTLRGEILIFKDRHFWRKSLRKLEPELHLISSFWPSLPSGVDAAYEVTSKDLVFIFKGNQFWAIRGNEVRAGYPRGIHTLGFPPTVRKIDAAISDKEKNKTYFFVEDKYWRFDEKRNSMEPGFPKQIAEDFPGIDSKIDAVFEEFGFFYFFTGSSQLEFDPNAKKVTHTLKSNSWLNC", "assay": "biochemical", "procedure": "as §1"}, "[4]": {"conditions": "male, Sprague Dawley, rat, sc, 5 mg/kg"}, "[5]": {"conditions": "single 5 mg/kg s.c., male Sprague Dawley rats, n = 4, SPE, RP-UPLC/ESI-MS, 2-compartment population model"}}, "note": "Bridge positions count the residues as written; N and C are the ends. Peptide text beside a SMILES is read from it.", "data": [{"smiles": "CC[C@H](C)[C@@H]1NC(=O)[C@@H]2CSSC[C@H](NC(=O)[C@H](CCCNC(=N)N)NC(=O)[C@@H]3CSSC[C@H](NC1=O)C(=O)N[C@@H]([C@@H](C)O)C(=O)N[C@@H](CCCNC(=N)N)C(=O)NCC(=O)N[C@@H](Cc1ccccc1)C(=O)N3)C(=O)N[C@@H](CC(C)C)C(=O)N[C@H]1CSSC[C@H](NC(=O)[C@H](C(C)C)NC(=O)CNC(=O)[C@H](CCCNC(=N)N)NC(=O)[C@H](CCCNC(=N)N)NC1=O)C(=O)N[C@@H](CCCNC(=N)N)C(=O)N2", "note": "[RTD-1, rhesus θ-defensin 1] (cyclo(GFCRCLCRRGVCRCICTR); disulfide 3-16, 5-14, 7-12)", "values": [{"measurement": "clearance", "setting": "in vivo; [4]", "result": 3.55, "unit": "mL/h/kg"}, {"measurement": "half-life", "setting": "in vivo; [4]", "result": 32.3, "unit": "h"}, {"measurement": "distribution clearance", "setting": "in vivo; [5]", "result": 22.3, "unit": "mL/h/kg"}, {"measurement": "distribution half-life", "setting": "in vivo; [5]", "result": 0.285, "unit": "h"}, {"measurement": "stability in rat plasma", "setting": "[1]", "result": "highly stable"}, {"measurement": "cell viability in proliferation assay", "setting": "FLS", "result": "≥ 98", "unit": "%"}, {"measurement": "inhibition of FLS invasion", "setting": "FLS from PIA rats", "result": 50, "unit": "%"}, {"measurement": "humoral response (anti-RTD-1 Ig) by dot immunoblot", "setting": "anti-RTD-1 Ig", "result": "No anti-RTD-1 Ig was detected"}, {"measurement": "resolution of clinical disease by day 15", "setting": "[2]; 5 mg/kg s.c. daily until AS = 0, AS ≥ 12 before treatment", "result": "complete resolution of clinical disease in all RTD-1 treated rats"}, {"measurement": "RTD-1 treated animals that relapsed with joint disease", "setting": "[2]; after treatment stop and a disease-free interval", "result": "three of five"}, {"measurement": "tolerability", "setting": "[3]", "result": "well tolerated"}, {"measurement": "IC50", "setting": "MMP-9", "result": "11.1 ± 0.2", "unit": "µM"}, {"measurement": "IC50", "setting": "MMP-8", "result": "12 ± 0.05", "unit": "µM"}, {"measurement": "IC50", "setting": "MMP-1", "result": "> 50", "unit": "µM"}, {"measurement": "IC50", "setting": "MMP-14", "result": "7.8 ± 0.3", "unit": "µM"}, {"measurement": "IC50", "setting": "MMP-13", "result": "11 ± 0.4", "unit": "µM"}, {"measurement": "IC50", "setting": "MMP-2", "result": "19.6 ± 0.04", "unit": "µM"}, {"measurement": "IC50", "setting": "MMP-3", "result": "> 50", "unit": "µM"}]}]}
